The source made the active and inactive calls. The rule behind the calls is not given here.
What was measured:
[1] = system: Chromobacterium violaceum; experiment: Inhibition of quorum sensing system in Chromobacterium violaceum ATCC 31532 assessed as reduction in violacein production at 400 uM relative to control
[2] = system: Chromobacterium violaceum; experiment: Bactericidal activity against Chromobacterium violaceum ATCC 31532 at 400 uM by resazurin dye based assay relative to control; type: functional
[3] = system: Chromobacterium violaceum; experiment: Inhibition of quorum sensing in Chromobacterium violaceum ATCC 31532 assessed as quorum quenching by measuring violacein production at 40 uM in presence of C6-HSL
[4] = system: Chromobacterium violaceum; experiment: Bactericidal activity against violacein-negative Chromobacterium violaceum CV026 mini-Tn5 mutant at 400 uM by resazurin dye based assay relative to control; type: functional
[5] = system: Chromobacterium violaceum; experiment: Inhibition of quorum sensing in violacein-negative Chromobacterium violaceum CV026 mini-Tn5 mutant assessed as quorum quenching by measuring violacein production at 400 uM in presence of C6-HSL relative to control; parameters: scale not given: the % may be the effect or the level left
[6] = system: Chromobacterium violaceum; experiment: Inhibition of quorum sensing in Chromobacterium violaceum ATCC 31532 assessed as reduction in violacein production at 400 uM relative to control
[7] = system: Chromobacterium violaceum; experiment: Inhibition of quorum sensing in violacein-negative Chromobacterium violaceum CV026 mini-Tn5 mutant assessed as quorum quenching by measuring violacein production at 40 uM in presence of C6-HSL relative to control; parameters: scale not given: the % may be the effect or the level left
[8] = system: Chromobacterium violaceum; experiment: Inhibition of quorum sensing in Chromobacterium violaceum ATCC 31532 assessed as reduction in violacein production at 40 uM relative to control
[9] = system: Chromobacterium violaceum; experiment: Bactericidal activity against Chromobacterium violaceum ATCC 31532 assessed as reduction in cell viability at 400 uM by resazurin dye based assay relative to control

SMILES	inhibition [1]	Activity [2]	Activity [3]	Activity [4]	Activity [5]	inhibition [6] [%]	Activity [7] [%]	inhibition [8]	Activity [9] [%]
O=C(/C=C/C(=O)Nc1cccc(Cl)c1)NCCCCNc1cc(C(F)(F)F)nc2c(C(F)(F)F)cccc12	22.3%	22.3%	–	–	–	–	–	–	–
CC(C)(C)OC(=O)N1CCC(NC(=O)/C=C/C(=O)NCCCCNc2ccnc3cc(Cl)ccc23)CC1	inactive	8.3%	–	–	–	–	–	–	–
COc1cc(NC(C)CCCNC(=O)/C=C/C(=O)Nc2cccc(C(F)(F)F)c2)c2ncccc2c1 (stereo unspecified)	inactive	16.4%	inactive	–	–	–	–	–	–
O=c1c(O)c(-c2ccc(O)c(O)c2)oc2cc(O)cc(O)c12 [QUERCETIN]	55.8%	14.7%	–	17.1%	66.8%	–	–	–	–
O=C(/C=C/C(=O)Nc1cccc(C(F)(F)F)c1)NCCCCNc1ccnc2cc(Cl)ccc12	inactive	inactive	–	–	–	–	–	–	–
O=C(/C=C/C(=O)Nc1ccc(F)cc1)NCCCCNc1ccnc2cc(Cl)ccc12	87.9%	39.7%	inactive	inactive	inactive	75	–	–	–
CC[C@H]1OC(=O)[C@H](C)[C@@H](O[C@H]2C[C@@](C)(OC)[C@@H](O)[C@H](C)O2)[C@H](C)[C@@H](O[C@@H]2O[C@H](C)C[C@H](N(C)C)[C@H]2O)[C@](C)(O)C[C@@H](C)CN(C)[C@H](C)[C@@H](O)[C@]1(C)O [AZITHROMYCIN]	90.6%	85.6%	–	67.2%	86.3%	90.6	86.3	–	–
CC(C)(C)OC(=O)Nc1ccc(NC(=O)/C=C/C(=O)NCCCCNc2ccnc3cc(Cl)ccc23)cc1	inactive	43.7%	–	–	–	–	–	–	–
O=C(/C=C/C(=O)Nc1ccc(C(F)(F)F)cc1)NCCCCNc1cc(C(F)(F)F)nc2c(C(F)(F)F)cccc12	inactive	inactive	–	–	–	–	–	–	–
NC1CCN(C(=O)/C=C/C(=O)NCCCCNc2ccnc3cc(Cl)ccc23)CC1	47.2%	16.2%	–	13.4%	62.6%	–	39.9	7%	–
O=C(/C=C/C(=O)Nc1ccc(C(F)(F)F)cc1)NCCCCNc1ccnc2cc(Cl)ccc12	85.7%	27.7%	inactive	inactive	inactive	–	–	–	–
O=C(/C=C/C(=O)Nc1cccc(F)c1)NCCCCNc1ccnc2cc(Cl)ccc12	79.4%	27.8%	inactive	inactive	inactive	75	–	–	27
COc1cc(NC(C)CCCNC(=O)/C=C/C(=O)Nc2cccc(F)c2)c2ncccc2c1 (stereo unspecified)	inactive	inactive	–	–	–	–	–	–	–
COc1cc(NC(C)CCCN)c2ncccc2c1 (stereo unspecified)	inactive	inactive	–	inactive	inactive	–	–	–	–
O=C(/C=C/C(=O)Nc1cccc(Cl)c1)NCCCCNc1ccnc2cc(Cl)ccc12	75.3%	45.8%	–	inactive	inactive	75	–	–	27
COc1cc(NC(C)CCCNC(=O)/C=C/C(=O)Nc2ccc(Cl)cc2)c2ncccc2c1 (stereo unspecified)	inactive	inactive	–	–	–	–	–	–	–
COc1cc(NC(C)CCCNC(=O)/C=C/C(=O)Nc2ccc(F)cc2)c2ncccc2c1 (stereo unspecified)	inactive	24.2%	–	–	–	–	–	–	–
CC(C)(C)OC(=O)NCCNC(=O)/C=C/C(=O)NCCCCNc1ccnc2cc(Cl)ccc12	23%	10.7%	–	–	–	–	–	–	–
CCN(CC)CCCC(C)Nc1ccnc2cc(Cl)ccc12 (stereo unspecified) [CHLOROQUINE]	13.2%	10.1%	–	–	–	–	–	–	–
CC(C)(C)OC(=O)NC1CCN(C(=O)/C=C/C(=O)NCCCCNc2ccnc3cc(Cl)ccc23)CC1	9.1%	44.6%	–	–	–	–	–	–	–
O=C(/C=C/C(=O)NC1CCNCC1)NCCCCNc1ccnc2cc(Cl)ccc12	45.9%	6.5%	–	10.3%	61.6%	–	42.8	5.4%	–
O=C(/C=C/C(=O)Nc1cccc(F)c1)NCCCCNc1cc(C(F)(F)F)nc2c(C(F)(F)F)cccc12	16.9%	inactive	–	–	–	–	–	–	–
O=C(/C=C/C(=O)Nc1ccc(Cl)cc1)NCCCCNc1ccnc2cc(Cl)ccc12	85%	56.9%	inactive	inactive	inactive	–	–	–	27
O=C(/C=C/C(=O)Nc1ccc(F)cc1)NCCCCNc1cc(C(F)(F)F)nc2c(C(F)(F)F)cccc12	29.1%	inactive	–	–	–	–	–	–	–
NCCNC(=O)/C=C/C(=O)NCCCCNc1ccnc2cc(Cl)ccc12	46.3%	12.1%	–	10.3%	53.3%	–	52.5	inactive	–
Nc1ccc(NC(=O)/C=C/C(=O)NCCCCNc2ccnc3cc(Cl)ccc23)cc1	4.7%	17.5%	–	–	–	–	–	–	–
COc1cc(NC(C)CCCNC(=O)/C=C/C(=O)Nc2cccc(Cl)c2)c2ncccc2c1 (stereo unspecified)	inactive	17.9%	–	–	–	–	–	–	–
COc1cc(NC(C)CCCNC(=O)/C=C/C(=O)Nc2ccc(C(F)(F)F)cc2)c2ncccc2c1 (stereo unspecified)	inactive	31.2%	–	–	–	–	–	–	–
O=C(/C=C/C(=O)Nc1cccc(C(F)(F)F)c1)NCCCCNc1cc(C(F)(F)F)nc2c(C(F)(F)F)cccc12	22.3%	13.8%	–	–	–	–	–	–	–
O=C(/C=C/C(=O)Nc1ccc(Cl)cc1)NCCCCNc1cc(C(F)(F)F)nc2c(C(F)(F)F)cccc12	29.9%	inactive	–	–	–	–	–	–	–

From ChEMBL document CHEMBL4725270, “Chloroquine fumardiamides as novel quorum sensing inhibitors” (2020)
